Experimental data as given in patent US10676468B2, “N-(3-heteroarylaryl)-4-arylarylcarboxamides and analogs as hedgehog pathway inhibitors and use thereof” (IMPACT Therapeutics, Inc., priority 2012, dated 2020).

Columns and labels:
Type in all cases: cell-based, mouse
[1] = tested on: Hedgehog Signaling Pathway; assay: SAG-induced differentiation of C3H10T1/2 cells into osteoblastic cells, intracellular alkaline phosphatase activity; conditions: 1 μM SAG, 5 days, alkaline phosphatase activity (OD405), read-out: IC50 values of compounds that inhibit Hh pathway
Procedure, shortened: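 Mouse C3H10T1/2 cells were induced with SAG and exposed to compound (10 μM to 1 nM) for 5 days at 37 °C. Cells were lysed in 0.2% Triton, and alkaline phosphatase activity was read as OD405 over 30 min at 37 °C in pH 9.8 substrate buffer. IC50 came from a non-linear fit of background-subtracted OD405 against log concentration.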

[2] = tested on: Hedgehog Signaling Pathway; assay: SHH-induced differentiation of C3H10T1/2 cells into osteoblastic cells, intracellular alkaline phosphatase activity; conditions: 10 nM SHH-N, 5 days, alkaline phosphatase activity (OD405), read-out: IC50 values of compounds that inhibit Hh pathway
Procedure, shortened: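 Hedgehog pathway inhibition was taken as loss of SHH-driven osteoblastic differentiation. Test compound (10 nM–10 μM) plus SHH-N (10 nM) was applied to C3H10T1/2 cells for 5 days, then lysate phosphatase turnover was measured as the 30-min OD405 change at 37 °C. IC50 was fitted from activity versus log dose.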

[3] = tested on: Hedgehog Signaling Pathway; assay: Gli-Luc reporter gene cell assay in C3H10T1/2/Gli-Luc cells stimulated with Shh; conditions: 30 nM Shh, luciferase activity (RLU), read-out: IC50 values of compounds that inhibit Hh pathway
Procedure, shortened: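 IC50 from nonlinear fit of luciferase RLU versus log compound concentration. Stably transfected C3H10T1/2/Gli-Luc cells received a 7-point compound series alongside Shh (30 nM in the added medium) for 24 h at 37 °C in DMEM/10% FBS, then were lysed for luciferase readout.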

[4] = Mus musculus, C3H 10T1/2, 120 h

Compound	IC50 [1, 4]	IC50 [2, 4]	IC50 ([3]; Mus musculus, C3H 10T1/2, 24 h)	IC50 [1]	IC50 [2]	IC50 ([3]; 24 hours)
C[C@@H]1CN(c2ccc(C(=O)Nc3ccc(Cl)c(-c4nc5ccccc5s4)c3)c(Cl)c2)C[C@H](C)N1C [Example 207, N-(3-(benzo[d]thiazol-2-yl)-4-chlorophenyl)-2-chloro-4-((3S,5R)-3,4,5-trimethylpiperazin-1-yl)benzamide]	158 nM	31 nM	8.5 nM			
C[C@@H]1CN(c2ccc(C(=O)Nc3ccc(Cl)c(-c4ccccn4)c3)c(Cl)c2)C[C@H](C)N1C [Example 208, N-(3-(pyridin-2-yl)-4-chlorophenyl)-2-chloro-4-((3S,5R)-3,4,5-trimethylpiperazin-1-yl)benzamide]	52 nM	1.3 nM	3.7 nM			
C[C@@H]1CN(c2ccc(C(=O)Nc3ccc(Cl)c(-c4ncccn4)c3)c(Cl)c2)C[C@H](C)N1C [Example 209, N-(3-(pyrimidin-2-yl)-4-chlorophenyl)-2-chloro-4-((3S,5R)-3,4,5-trimethylpiperazin-1-yl)benzamide]	1800 nM	> 10000 nM	> 10000 nM			
CS(=O)(=O)c1ccc(C(=O)Nc2ccc(Cl)c(-c3ccccn3)c2)c(Cl)c1 [GDC-0449, reference compound]	108 nM	38 nM	43 nM			
N-(3-(1H-benzo[d]imidazol-2-yl)-4-chlorophenyl)-2-cyano-4-((3S,5R)-3,4,5-trimethylpiperazin-1-yl)benzamide Dihydrochloride [Example 134]				> 10000 nM	> 10000 nM	> 10000 nM
N-(3-(5-(furan-2-yl)-1H-imidazol-2-yl)-4-chlorophenyl)-2-cyano-4-((3S,5R)-3,4,5-trimethylpiperazin-1-yl)benzamide [Example 147]				> 10000 nM	> 10000 nM	> 10000 nM
